What all share (format): in vivo
The subject of one assay is Septoria tritici. Description: Test A: wheat leaf blotch, preventive spray on wheat seedlings. Conditions: 50 ppm, 100 = 100% disease control, 0 = no control relative to controls. Put shortly: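 Compounds were suspended in acetone/water (50/50) with 250 ppm PEG400 and sprayed to run-off on wheat seedlings. The next day the seedlings were inoculated with Septoria tritici spores, held 48 h at 24 °C in saturated humidity, then 17 days at 20 °C. Disease control was rated 0–100 relative to controls.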

Assay [1] deals with Puccinia recondita f. sp. tritici. Description: Test B: wheat leaf rust, preventive spray on wheat seedlings. As to conditions: 50 ppm, 100 = 100% disease control, 0 = no control relative to controls. Put shortly: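 Compounds in acetone/water (50/50) with 250 ppm PEG400, sprayed to run-off on wheat seedlings at stated ppm; inoculated next day with P. recondita spores. Held 24 h saturated at 20° C., then 7 days in growth chamber at 20° C.; rating 0–100 = % disease control vs controls.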

Assay [2] relates to Blumeria graminis f. sp. tritici. As to the kind of experiment: Test C: wheat powdery mildew, preventive spray on wheat seedlings. Conditions: 50 ppm, rated after 8 days, 100 = 100% disease control, 0 = no control. Put shortly:
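Compound dissolved in acetone (3% of final volume), then suspended in 50/50 acetone/water with 250 ppm PEG400 and sprayed to run-off on wheat seedlings. Inoculated next day with B. graminis f. sp. tritici spore dust, kept 8 days at 20° C; visual rating, 100 = full control, 0 = none, relative to controls.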

A further assay relates to Phakopsora pachyrhizi. Description: Test D: Asian soybean rust, preventive spray on soybean seedlings. As to conditions: 50 ppm, 100 = 100% disease control, 0 = no control. The method in brief: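 Soybean seedlings sprayed to run-off with compound suspension (ppm, in 50/50 acetone/water with 250 ppm PEG400), inoculated next day with P. pachyrhizi spores, held 24 h saturated at 22°C then 8 days at 22°C. Visual rating 0-100% disease control relative to controls.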

The subject of another assay is Botrytis cinerea. Description: Test E: tomato Botrytis, preventive spray on tomato seedlings. Conditions: 50 ppm, 100 = 100% disease control, 0 = no control. Put shortly:
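Tomato seedlings sprayed to run-off with compound (ppm) in acetone/water with 250 ppm PEG400, then inoculated next day with B. cinerea spores. Held 48 h at 20 °C in saturated atmosphere, then 3 days at 24 °C. Visual rating 0–100% disease control relative to untreated controls.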

For a further assay, the system named is Alternaria solani. Description: Test F: tomato early blight, preventive spray on tomato seedlings. As to conditions: 50 ppm, 100 = 100% disease control, 0 = no control. The method in brief: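 Compounds in acetone/water (50/50) with 250 ppm PEG400, dosed in ppm, sprayed to run-off on tomato seedlings; next day inoculated with A. solani spores. Held 48 h saturated at 27° C, then 3 days at 20° C; visual rating 0–100% disease control relative to controls.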

Consider `Cc1nn(C)c(Nc2c(F)cccc2[N+](=O)[O-])c1-c1c(F)cc(Cl)cc1F` [Compound 151], for which the “Test A disease control rating (wheat leaf blotch)” value (shortened to “Test A disease control rating”) in the assay with Septoria tritici was 100%. For the same compound, the “Test B disease control rating (wheat leaf rust)” value (“Test B disease control rating” below) in assay [1] amounted to 100%. Besides, the “Test C disease control rating (wheat powdery mildew)” value (“Test C disease control rating” below) in assay [2] is listed as 99%. In the assay with Phakopsora pachyrhizi, the “Test D disease control rating (Asian soybean rust)” value (shortened to “Test D disease control rating”) was found to be 0%. In addition, the “Test E disease control rating (tomato Botrytis)” value (shortened to “Test E disease control rating”) with Botrytis cinerea stood at 99%. Besides, the “Test F disease control rating (tomato early blight)” value (from here on “Test F disease control rating”) in the assay on Alternaria solani worked out at 99%.

As for `Cc1nn(C)c(Nc2c(Cl)cccc2[N+](=O)[O-])c1-c1c(F)cc(F)cc1Cl` [Compound 152], the “Test A disease control rating” value in the assay on Septoria tritici is given as 99%. Besides, the “Test B disease control rating” value in assay [1] stood at 100%. For the same compound, the “Test C disease control rating” value in assay [2] was determined as 98%. Further, the “Test D disease control rating” value in the assay with Phakopsora pachyrhizi is 91%. In addition, the “Test E disease control rating” value in the assay with Botrytis cinerea was 99%. In addition, the “Test F disease control rating” value in the assay with Alternaria solani is on record as 92%.

Regarding `Cc1cccc([N+](=O)[O-])c1Nc1c(-c2c(F)cc(F)cc2Cl)c(C)nn1C` [Compound 153], the “Test A disease control rating” value in the assay with Septoria tritici is recorded as 99%. For the same compound, the “Test B disease control rating” value in assay [1] is listed as 100%. Further, the “Test C disease control rating” value in assay [2] came to 99%. Besides, the “Test D disease control rating” value with Phakopsora pachyrhizi was 73%. The “Test E disease control rating” value in the assay with Botrytis cinerea worked out at 99%. Besides, the “Test F disease control rating” value with Alternaria solani is given as 72%.

For `Cc1nn(C)c(Nc2ccccc2[N+](=O)[O-])c1-c1c(F)cc(F)cc1Br` [Compound 154], the “Test A disease control rating” value with Septoria tritici was found to be 99%. Moreover, the “Test B disease control rating” value in assay [1] came out at 80%. For the same compound, the “Test C disease control rating” value in assay [2] is reported as 98%. The “Test D disease control rating” value in the assay on Phakopsora pachyrhizi worked out at 0%. In the assay on Botrytis cinerea, the “Test E disease control rating” value was 99%. In the assay on Alternaria solani, the “Test F disease control rating” value worked out at 51%.

On to `Cc1nn(C)c(Nc2c(F)cc(Br)cc2[N+](=O)[O-])c1-c1ccc(C#N)cc1Cl` [Compound 155], for which the “Test A disease control rating” value with Septoria tritici amounted to 99%. The “Test B disease control rating” value in assay [1] amounted to 99%. Also, the “Test C disease control rating” value in assay [2] is 90%. Moreover, the “Test D disease control rating” value with Phakopsora pachyrhizi amounted to 0%. Further, the “Test E disease control rating” value with Botrytis cinerea is 100%. For the same compound, in the assay on Alternaria solani, the “Test F disease control rating” value turned out to be 93%.

For `Cc1cc(Cl)c(Nc2c(-c3ccc(C#N)cc3Cl)c(C)nn2C)c([N+](=O)[O-])c1` [Compound 156], the “Test A disease control rating” value with Septoria tritici is 91%. Besides, in assay [1], the “Test B disease control rating” value is 91%. Further, the “Test C disease control rating” value in assay [2] was 66%. Besides, the “Test D disease control rating” value in the assay with Phakopsora pachyrhizi worked out at 0%. Also, the “Test E disease control rating” value in the assay on Botrytis cinerea is on record as 0%. In addition, the “Test F disease control rating” value in the assay with Alternaria solani is reported as 0%.

Consider `Cc1cccc([N+](=O)[O-])c1Nc1c(-c2ccc(C#N)cc2Cl)c(C)nn1C` [Compound 157], for which the “Test A disease control rating” value with Septoria tritici is reported as 100%. Further, in assay [1], the “Test B disease control rating” value is reported as 97%. Also, in assay [2], the “Test C disease control rating” value turned out to be 76%. Also, in the assay with Phakopsora pachyrhizi, the “Test D disease control rating” value is listed as 0%. Also, the “Test E disease control rating” value with Botrytis cinerea is 9%. Also, the “Test F disease control rating” value with Alternaria solani was 0%.

With `Cc1nn(C)c(Nc2c(Cl)cccc2[N+](=O)[O-])c1-c1c(F)cc(F)cc1F` [Compound 158], the “Test A disease control rating” value with Septoria tritici is on record as 99%. Also, the “Test B disease control rating” value in assay [1] was 100%. The “Test C disease control rating” value in assay [2] is 99%. The “Test D disease control rating” value in the assay with Phakopsora pachyrhizi is listed as 87%. The “Test E disease control rating” value in the assay on Botrytis cinerea was found to be 99%. Moreover, the “Test F disease control rating” value with Alternaria solani turned out to be 83%.

With `COc1ccc(Nc2c(-c3c(F)cc(F)cc3F)c(C)nn2C)c([N+](=O)[O-])c1` [Compound 159], the “Test A disease control rating” value in the assay on Septoria tritici was determined as 100%. In assay [1], the “Test B disease control rating” value stood at 100%. For the same compound, the “Test C disease control rating” value in assay [2] was 100%. The “Test D disease control rating” value in the assay with Phakopsora pachyrhizi is on record as 13%. Further, in the assay with Botrytis cinerea, the “Test E disease control rating” value was 99%. In the assay on Alternaria solani, the “Test F disease control rating” value came out at 99%.

As for `COc1cc(F)c(-c2c(C)nn(C)c2Nc2c(Cl)cccc2[N+](=O)[O-])c(F)c1` [Compound 160], the “Test A disease control rating” value in the assay on Septoria tritici was determined as 98%. Besides, the “Test B disease control rating” value in assay [1] was determined as 100%. In assay [2], the “Test C disease control rating” value is 96%. In addition, the “Test D disease control rating” value with Phakopsora pachyrhizi stood at 86%. Also, in the assay on Botrytis cinerea, the “Test E disease control rating” value is recorded as 100%. Further, in the assay on Alternaria solani, the “Test F disease control rating” value is reported as 99%.

As for `COc1cc(F)c(-c2c(C)nn(C)c2Nc2ccc(OC)cc2[N+](=O)[O-])c(F)c1` [Compound 161], in the assay on Septoria tritici, the “Test A disease control rating” value worked out at 100%. The “Test B disease control rating” value in assay [1] amounted to 100%. In addition, the “Test C disease control rating” value in assay [2] is on record as 100%. The “Test D disease control rating” value in the assay on Phakopsora pachyrhizi is given as 0%. In the assay with Botrytis cinerea, the “Test E disease control rating” value is given as 100%. In addition, the “Test F disease control rating” value in the assay on Alternaria solani is recorded as 99%.

For `COc1cc(F)c(-c2c(C)nn(C)c2Nc2c(C)cccc2[N+](=O)[O-])c(F)c1` [Compound 162], in the assay with Septoria tritici, the “Test A disease control rating” value is 100%. In addition, the “Test B disease control rating” value in assay [1] is 100%. Also, the “Test C disease control rating” value in assay [2] was determined as 99%. The “Test D disease control rating” value in the assay with Phakopsora pachyrhizi was found to be 77%. Further, the “Test E disease control rating” value in the assay on Botrytis cinerea was determined as 97%. Also, the “Test F disease control rating” value in the assay on Alternaria solani is given as 98%.

For `Cc1nn(C)c(Nc2c(Cl)cccc2[N+](=O)[O-])c1-c1c(F)cc(F)cc1Br` [Compound 163], in the assay with Septoria tritici, the “Test A disease control rating” value is reported as 99%. In assay [1], the “Test B disease control rating” value is listed as 100%. The “Test C disease control rating” value in assay [2] stood at 98%. Moreover, the “Test D disease control rating” value with Phakopsora pachyrhizi is 78%. The “Test E disease control rating” value in the assay on Botrytis cinerea was found to be 88%. Besides, in the assay with Alternaria solani, the “Test F disease control rating” value was determined as 76%.

As to `COc1ccc(Nc2c(-c3c(F)cc(F)cc3Br)c(C)nn2C)c([N+](=O)[O-])c1` [Compound 164], the “Test A disease control rating” value in the assay with Septoria tritici is 100%. In assay [1], the “Test B disease control rating” value is 100%. In addition, the “Test C disease control rating” value in assay [2] was determined as 98%. In the assay with Phakopsora pachyrhizi, the “Test D disease control rating” value stood at 0%. Moreover, in the assay on Botrytis cinerea, the “Test E disease control rating” value was determined as 100%. Moreover, in the assay with Alternaria solani, the “Test F disease control rating” value worked out at 99%.

On to `COc1cc(F)c(Nc2c(-c3ccc(F)cc3Br)c(C)nn2C)c([N+](=O)[O-])c1` [Compound 165], for which the “Test A disease control rating” value with Septoria tritici is given as 99%. Further, the “Test B disease control rating” value in assay [1] is reported as 100%. For the same compound, the “Test C disease control rating” value in assay [2] is 98%. For the same compound, the “Test D disease control rating” value with Phakopsora pachyrhizi was 94%. In the assay with Botrytis cinerea, the “Test E disease control rating” value worked out at 100%. In addition, the “Test F disease control rating” value in the assay with Alternaria solani was 100%.

Take `COc1cc(F)c(Nc2c(-c3ccc(C#N)cc3Cl)c(C)nn2C)c([N+](=O)[O-])c1` [Compound 166]: the “Test A disease control rating” value with Septoria tritici is recorded as 99%. Further, the “Test B disease control rating” value in assay [1] stood at 100%. Also, the “Test C disease control rating” value in assay [2] was 98%. Further, in the assay on Phakopsora pachyrhizi, the “Test D disease control rating” value is given as 98%. Further, in the assay with Botrytis cinerea, the “Test E disease control rating” value was 99%. Also, the “Test F disease control rating” value with Alternaria solani worked out at 100%.

For the compound `Cc1cccc([N+](=O)[O-])c1Nc1c(-c2c(F)cc(F)cc2F)c(C)nn1C` [Compound 167], the “Test A disease control rating” value with Septoria tritici came out at 100%. The “Test B disease control rating” value in assay [1] worked out at 100%. Also, the “Test C disease control rating” value in assay [2] is 98%. The “Test D disease control rating” value with Phakopsora pachyrhizi was 65%. In the assay with Botrytis cinerea, the “Test E disease control rating” value is recorded as 95%. For the same compound, in the assay on Alternaria solani, the “Test F disease control rating” value was found to be 98%.

Consider `Cc1nn(C)c(Nc2ccccc2[N+](=O)[O-])c1-c1c(F)cc(Cl)cc1F` [Compound 168], for which the “Test A disease control rating” value in the assay on Septoria tritici stood at 100%. In addition, in assay [1], the “Test B disease control rating” value came to 74%. The “Test C disease control rating” value in assay [2] is 97%. Also, in the assay on Phakopsora pachyrhizi, the “Test D disease control rating” value is 0%. In addition, the “Test E disease control rating” value in the assay with Botrytis cinerea was found to be 99%. Also, the “Test F disease control rating” value with Alternaria solani is 40%.

(Values after patent publication US12398107B2, “Fungicidal nitroanilino substituted pyrazoles” (FMC Corporation, priority 2018, dated 2025).)
